Experiments:
Aβ(1-40) aggregates = target: T1, Aβ(1-40) aggregates (Homo sapiens, UniProt P05067); experiment: In vitro binding of [125I]-labelled compounds to Aβ aggregates (filtration, radioactivity on filter); details: [125I]-labelled compound; radioactivity remaining on filter in presence vs absence of Aβ aggregates
T1 construct: The amyloid β protein (Human, 1-40) [HCl form]; purchased Peptide Institute, Inc
Experimental: Aβ aggregates was dissolved in a buffer (pH 7.4) that contained 10 mM sodium phosphate and 1 mM EDTA, resulting in a concentration of 0.5 mg/ml. Thereafter, the obtained solution was incubated at 37° C. for 36 to 42 hours. A binding experiment was carried out using 12×75 mm borosilicate glass tubes. […] The obtained mixture was left at room temperature for 3 hours. Non-specific bond was calculated using nonradioactive compound 11 (1 μM). […] The radioactivity of a substance remaining in the filter used in filtration was measured with a γ counter. With regard to [^125I] compound 11, the Kd value thereof was calculated by the Scatchard analysis. In addition, using [^125I] compound 11 as a radioactive ligand, an inhibition experiment was carried out by the following method using the Aβ(1-40) aggregates and the Aβ(1-42) aggregates. […] The obtained mixture was left at room temperature for 3 hours. Non-specific bond was calculated using nonradioactive compound 11 (1 μM). The 50% inhibitory concentration was calculated using GraphPad Prism (GraphPad Software), and the inhibition constant (Ki value) was calculated according to the formula of Cheng-Prusoff, Ki=IC50/(1+[L]/Kd). In this formula, [L] represents the concentration of [^125I] compound 11, and Kd represents the dissociation constant of [^125I] compound 11 to the Aβ(1-40) aggregates and the Aβ(1-42) aggregates.

[1] = Radioactivity distribution in mouse body after intravenous administration of radioiodine labeled forms; details: for Distribution of radioactivity, Blood / Distribution of radioactivity, Brain / Distribution of radioactivity, Heart / Distribution of radioactivity, Intestine / Distribution of radioactivity, Kidney / Distribution of radioactivity, Liver / Distribution of radioactivity, Spleen: mouse, intravenous administration, mean (SD) of 3 to 5 mice
Experimental: Thereafter, 100 μl (0.5 to 1 μCi) of each labeled form was intravenously administered to each group consisting of three to five 5-week-old ddY male mice (25 to 30 g). 2, 10, 30, and 60 minutes after the intravenous administration, such mice were decapitated, and blood was collected. Thereafter, organs were excised, and the weight and radioactivity thereof were then measured.

[2] = normal mice, intravenous, [125I]-labelled form

T1 sequence (P05067 672-711 limits assumed): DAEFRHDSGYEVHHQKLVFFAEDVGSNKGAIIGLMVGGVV

| Compound | bindability to the Aβ aggregates (Aβ(1-40) aggregates) | washing out / disappearance of radioactivity from the brain [1, 2] | Distribution of radioactivity, Blood ([1]; 2 min after administration) | Distribution of radioactivity, Blood ([1]; 10 min after administration) | Distribution of radioactivity, Blood ([1]; 30 min after administration) | Distribution of radioactivity, Blood ([1]; 60 min after administration) | Distribution of radioactivity, Brain ([1]; 2 min after administration) | Distribution of radioactivity, Brain ([1]; 10 min after administration) | Distribution of radioactivity, Brain ([1]; 30 min after administration) | Distribution of radioactivity, Brain ([1]; 60 min after administration) | Distribution of radioactivity, Heart ([1]; 2 min after administration) | Distribution of radioactivity, Heart ([1]; 10 min after administration) | Distribution of radioactivity, Heart ([1]; 30 min after administration) | Distribution of radioactivity, Heart ([1]; 60 min after administration) | Distribution of radioactivity, Intestine ([1]; 2 min after administration) | Distribution of radioactivity, Intestine ([1]; 10 min after administration) | Distribution of radioactivity, Intestine ([1]; 30 min after administration) | Distribution of radioactivity, Intestine ([1]; 60 min after administration) | Distribution of radioactivity, Kidney ([1]; 2 min after administration) | Distribution of radioactivity, Kidney ([1]; 10 min after administration) | also measured |
| --- | --- | --- | --- | --- | --- | --- | --- | --- | --- | --- | --- | --- | --- | --- | --- | --- | --- | --- | --- | --- | --- |
| CNc1ccc(C=Cc2cc(=O)c3cc(I)ccc3o2)cc1 [compound 47, 6-iodo-4′-methylaminostyrylchromone] | high binding affinity | rapid disappearance of radioactivity |  |  |  |  |  |  |  |  |  |  |  |  |  |  |  |  |  |  | ability to transfer to the brain [1, 2]: 3.0 % ID/g |
| COc1cc(/C=C/C(=O)c2cccc(I)c2)ccc1O [compound 31, (E)-3-(4-hydroxy-3-methoxyphenyl)-1-(3-iodophenyl)propan-2-en-1-one] | high binding affinity | washed out rapidly |  |  |  |  |  |  |  |  |  |  |  |  |  |  |  |  |  |  | ability to transfer to the brain (in words) [1, 2]: transfers to the brain |
| CN(C)c1ccc(/C=C/C(=O)c2ccc(I)cc2)cc1 [compound 36, (E)-3-(4-(dimethylamino)phenyl)-1-(4-iodophenyl)propan-2-en-1-one] | high binding affinity |  |  |  |  |  |  |  |  |  |  |  |  |  |  |  |  |  |  |  |  |
| Nc1ccc(C=Cc2cc(=O)c3cc(I)ccc3o2)cc1 [compound 46, 6-iodo-4′-aminostyrylchromone] | high binding affinity | rapid disappearance of radioactivity |  |  |  |  |  |  |  |  |  |  |  |  |  |  |  |  |  |  | ability to transfer to the brain [1, 2]: 4.9 % ID/g |
| COc1cc(/C=C/C(=O)c2cccc([125I])c2)ccc1O [[125I]Compound 31] |  |  | 4.90 (0.52) % ID/g | 3.80 (0.91) % ID/g | 1.84 (0.31) % ID/g | 1.15 (0.44) % ID/g | 2.52 (0.20) % ID/g | 1.28 (0.17) % ID/g | 0.40 (0.11) % ID/g | 0.35 (0.05) % ID/g | 5.58 (0.99) % ID/g | 2.88 (1.02) % ID/g | 1.44 (0.34) % ID/g | 1.38 (0.34) % ID/g | 2.50 (0.31) % ID/g | 10.52 (1.82) % ID/g | 20.60 (6.13) % ID/g | 29.31 (3.26) % ID/g | 11.99 (3.60) % ID/g | 9.16 (2.76) % ID/g | Distribution of radioactivity, Kidney ([1]; 30 min after administration): 5.00 (2.27) % ID/g; Distribution of radioactivity, Kidney ([1]; 60 min after administration): 4.31 (0.81) % ID/g; Distribution of radioactivity, Liver ([1]; 2 min after administration): 15.71 (1.27) % ID/g; Distribution of radioactivity, Liver ([1]; 10 min after administration): 18.55 (2.68) % ID/g; Distribution of radioactivity, Liver ([1]; 30 min after administration): 7.67 (1.68) % ID/g; Distribution of radioactivity, Liver ([1]; 60 min after administration): 4.05 (0.61) % ID/g; Distribution of radioactivity, Spleen ([1]; 2 min after administration): 2.57 (0.42) % ID/g; Distribution of radioactivity, Spleen ([1]; 10 min after administration): 1.80 (0.30) % ID/g; Distribution of radioactivity, Spleen ([1]; 30 min after administration): 1.03 (0.04) % ID/g; Distribution of radioactivity, Spleen ([1]; 60 min after administration): 0.88 (0.15) % ID/g |

Second part, led by results:

| bindability to the Aβ aggregates (Aβ(1-40) aggregates) | washing out / disappearance of radioactivity from the brain [1, 2] | Distribution of radioactivity, Blood ([1]; 2 min after administration) | Distribution of radioactivity, Blood ([1]; 10 min after administration) | Distribution of radioactivity, Blood ([1]; 30 min after administration) | Distribution of radioactivity, Blood ([1]; 60 min after administration) | Distribution of radioactivity, Brain ([1]; 2 min after administration) | Distribution of radioactivity, Brain ([1]; 10 min after administration) | Distribution of radioactivity, Brain ([1]; 30 min after administration) | Distribution of radioactivity, Brain ([1]; 60 min after administration) | Distribution of radioactivity, Heart ([1]; 2 min after administration) | Distribution of radioactivity, Heart ([1]; 10 min after administration) | Distribution of radioactivity, Heart ([1]; 30 min after administration) | Distribution of radioactivity, Heart ([1]; 60 min after administration) | Distribution of radioactivity, Intestine ([1]; 2 min after administration) | Distribution of radioactivity, Intestine ([1]; 10 min after administration) | Distribution of radioactivity, Intestine ([1]; 30 min after administration) | Distribution of radioactivity, Intestine ([1]; 60 min after administration) | Distribution of radioactivity, Kidney ([1]; 2 min after administration) | Distribution of radioactivity, Kidney ([1]; 10 min after administration) | Compound | also measured |
| --- | --- | --- | --- | --- | --- | --- | --- | --- | --- | --- | --- | --- | --- | --- | --- | --- | --- | --- | --- | --- | --- |
| high binding affinity |  |  |  |  |  |  |  |  |  |  |  |  |  |  |  |  |  |  |  | CN(C)c1ccc(C=Cc2cc(=O)c3cc(I)ccc3o2)cc1 [compound 48, 6-iodo-4′-dimethylaminostyrylchromone] | ability to transfer to the brain (in words) [1, 2]: low; radioactivity retention in the blood [1, 2]: high radioactivity retention ability in the blood |
|  |  | 14.54 (3.37) % ID/g | 3.50 (1.13) % ID/g | 1.5 (0.22) % ID/g | 0.80 (0.21) % ID/g | 0.70 (0.10) % ID/g | 0.72 (0.14) % ID/g | 1.02 (0.23) % ID/g | 0.77 (0.25) % ID/g | 8.89 (1.94) % ID/g | 4.00 (0.93) % ID/g | 2.36 (0.51) % ID/g | 1.42 (0.38) % ID/g | 1.52 (0.09) % ID/g | 4.8 (0.74) % ID/g | 11.98 (1.26) % ID/g | 14.91 (4.18) % ID/g | 9.04 (1.72) % ID/g | 5.58 (1.07) % ID/g | CN(C)c1ccc(C=Cc2cc(=O)c3cc([125I])ccc3o2)cc1 [[125I]Compound 48] | Distribution of radioactivity, Kidney ([1]; 30 min after administration): 5.16 (1.06) % ID/g; Distribution of radioactivity, Kidney ([1]; 60 min after administration): 3.94 (1.25) % ID/g; Distribution of radioactivity, Liver ([1]; 2 min after administration): 20.56 (3.98) % ID/g; Distribution of radioactivity, Liver ([1]; 10 min after administration): 15.09 (2.63) % ID/g; Distribution of radioactivity, Liver ([1]; 30 min after administration): 12.82 (1.96) % ID/g; Distribution of radioactivity, Liver ([1]; 60 min after administration): 8.79 (1.80) % ID/g; Distribution of radioactivity, Spleen ([1]; 2 min after administration): 5.09 (0.75) % ID/g; Distribution of radioactivity, Spleen ([1]; 10 min after administration): 4.06 (0.66) % ID/g; Distribution of radioactivity, Spleen ([1]; 30 min after administration): 3.15 (0.70) % ID/g; Distribution of radioactivity, Spleen ([1]; 60 min after administration): 2.82 (0.36) % ID/g |
|  |  | 2.77 (0.43) % ID/g | 1.58 (0.18) % ID/g | 0.66 (0.03) % ID/g | 0.20 (0.02) % ID/g | 3.31 (0.32) % ID/g | 1.90 (0.07) % ID/g | 0.52 (0.03) % ID/g | 0.08 (0.02) % ID/g | 5.51 (0.71) % ID/g | 1.60 (0.18) % ID/g | 0.53 (0.04) % ID/g | 0.12 (0.02) % ID/g | 3.12 (0.37) % ID/g | 11.26 (0.63) % ID/g | 22.01 (1.34) % ID/g | 27.28 (0.48) % ID/g | 14.79 (2.59) % ID/g | 15.11 (2.00) % ID/g | O=c1cc(-c2ccc(O)cc2)oc2ccc([125I])cc12 [[125I]Compound 20] | Distribution of radioactivity, Kidney ([1]; 30 min after administration): 6.45 (0.84) % ID/g; Distribution of radioactivity, Kidney ([1]; 60 min after administration): 1.66 (0.62) % ID/g; Distribution of radioactivity, Liver ([1]; 2 min after administration): 9.77 (1.89) % ID/g; Distribution of radioactivity, Liver ([1]; 10 min after administration): 8.24 (0.50) % ID/g; Distribution of radioactivity, Liver ([1]; 30 min after administration): 6.80 (0.86) % ID/g; Distribution of radioactivity, Liver ([1]; 60 min after administration): 4.78 (1.09) % ID/g; Distribution of radioactivity, Spleen ([1]; 2 min after administration): 3.92 (1.18) % ID/g; Distribution of radioactivity, Spleen ([1]; 10 min after administration): 1.55 (0.15) % ID/g; Distribution of radioactivity, Spleen ([1]; 30 min after administration): 0.56 (0.13) % ID/g; Distribution of radioactivity, Spleen ([1]; 60 min after administration): 0.17 (0.06) % ID/g |

From patent publication US8192717B2, “Composition for diagnosing amyloid-related diseases” (Nagasaki University, priority 2004, dated 2012)
